Measurements from ChEMBL document CHEMBL5108013, “Crescent-shaped meta-substituted benzene derivatives as a new class of non-nucleoside ribonuclease A inhibitors” (Bioorg Med Chem, 2022).
Activity calls are given as the source filed them. No cut-off for these calls is given here.

What was measured:
Ribonuclease pancreatic [1] = target: T1, Ribonuclease pancreatic (Bos taurus, UniProt P61823); assay: Inhibition of bovine pancreatic RNase A using 2',3'-cCMP as substrate by Lineweaver-Burk plot analysis
T1 sequence (P61823 whole entry): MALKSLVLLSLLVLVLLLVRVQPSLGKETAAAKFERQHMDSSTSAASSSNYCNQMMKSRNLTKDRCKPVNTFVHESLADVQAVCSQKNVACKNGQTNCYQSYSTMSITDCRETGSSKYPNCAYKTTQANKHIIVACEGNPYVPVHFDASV

Ribonuclease pancreatic [2] = target: T1, Ribonuclease pancreatic; assay: Competitive inhibition of bovine pancreatic RNase A using 2',3'-cCMP as substrate by Lineweaver-Burk plot analysis
[3] = target: T2, Ribonuclease pancreatic (Bos taurus) (UniProt P61823); assay: Inhibition of bovine pancreatic RNase A assessed as increase in RNA band intensity using RNA as substrate incubated for 3 hrs followed by RNA addition for 30 mins by ethidium bromide staining based agarose gel electrophoresis; conditions: time 210.0 min
T2 sequence (whole entry): T1 sequence (P61823 whole entry)

Ribonuclease pancreatic [4] = target: T1, Ribonuclease pancreatic; assay: Non-competitive inhibition of bovine pancreatic RNase A using 2',3'-cCMP as substrate by Lineweaver-Burk plot analysis
Ribonuclease pancreatic [5] = target: T1, Ribonuclease pancreatic; assay: Inhibition of bovine pancreatic RNase A assessed as reduction in CpG cleavage by spectrophotometric analysis

Row | Structure (SMILES) | Ki (Ribonuclease pancreatic [2]) [µM] | inhibition [3] | further results
1 | O=S(=O)(O)CCn1cc(COC[C@@H]2O[C@H](Cn3cc(CS(=O)(=O)O)nn3)[C@@H](O)[C@H]2O)nn1 | – | – | Ki (Ribonuclease pancreatic [1]): 29 µM
2 | OCc1cn(-c2cccc(-n3cc(CO)nn3)c2)nn1 | 79 | Active | –
3 | O=C(O)c1cc(C(=O)N2CCC(C(=O)O)CC2)cc(C(=O)N2CCC(C(=O)O)CC2)c1 | 272 | Active | –
4 | Cc1cn([C@H]2C[C@H](NC(=O)[C@@H](CC(=O)O)NC(=O)[C@H]3O[C@@H](n4ccc(=O)[nH]c4=O)[C@H](O)[C@@H]3O)[C@@H](CO)O2)c(=O)[nH]c1=O | – | – | Ki (Ribonuclease pancreatic [1]): 66.7 µM
5 | O=C(Nc1ccc(Cc2ccc(NC(=O)c3cccc([N+](=O)[O-])c3)c(C(=O)O)c2)cc1C(=O)O)c1cccc([N+](=O)[O-])c1 | – | – | Ki (Ribonuclease pancreatic [5]): 21 µM
6 | Cc1cn([C@H]2C[C@H](NC(=O)[C@@H](CC(=O)O)NC(=O)[C@H]3O[C@@H](n4cnc5c(N)ncnc54)[C@H](O)[C@@H]3O)[C@@H](CO)O2)c(=O)[nH]c1=O | – | – | Ki (Ribonuclease pancreatic [1]): 32 µM
7 | O=C(O)c1cc(-n2cc(C(=O)O)nn2)cc(-n2cc(C(=O)O)nn2)c1 | 28 | Active | –

The next lines start with results.

Row | Ki (Ribonuclease pancreatic [2]) [µM] | inhibition [3] | Structure (SMILES) | further results
8 | 32 | Active | O=S(=O)(O)Cc1cn(-c2cccc(-n3cc(CS(=O)(=O)O)nn3)c2)nn1 | –
9 | 44 | Active | O=C(O)c1cc(-n2cc(CO)nn2)cc(-n2cc(CO)nn2)c1 | –
10 | – | Active | O=C(O)C1CCN(C(=O)c2cccc(C(=O)N3CCC(C(=O)O)CC3)c2)CC1 | Ki (Ribonuclease pancreatic [4]): 617 µM
11 | 60 | Active | O=C(O)c1cn(-c2cccc(-n3cc(C(=O)O)nn3)c2)nn1 | –
12 | 12 | Active | O=C(O)c1cc(-n2cc(CS(=O)(=O)O)nn2)cc(-n2cc(CS(=O)(=O)O)nn2)c1 | –
